# From a melting point compilation (Tetko et al.; mined from patent text by program, amines drawn as free bases though some values may be those of a salt)
row,Structure (SMILES),melting point
1,O=C(O)c1ccc(CCCC2SCC(=O)N2CCC2(O)CCCCC2)cc1 (stereo unspecified),147 to 148 °C
2,N[C@@H]1C[C@H](C2CCCCC2)c2ccccc2NC1=O (relative stereo),96 to 98 °C
3,CCCCCCc1ccc(C(=O)CCCCC(=O)O)cc1,77 to 79 °C
4,CCCCCCCc1ccc(CC2C=CC(Oc3ccc(C(=O)O)o3)=C3N=C4CCCCC4=C32)cc1 (stereo unspecified),164 to 165 °C
5,Cc1nccn1NCc1cc(C(C)(C)C)c(O)c(C(C)(C)C)c1,181 to 182 °C
6,COC(=O)CCc1ccccc1-c1[nH]c2cccc3c2c1CCNC3=O,201 to 202 °C
7,CCOC(=O)[C@H](CC(C)C)NC(=O)[C@@H](NC(=O)c1ccccc1)C(C)C,159 to 160 °C
8,O=c1oc2c(O)cccc2c(OCCN2CCOCC2)c1-c1ccccc1,190 to 191 °C
9,CCCCC(Cn1cncn1)(C(N)=O)c1ccc(Cl)cc1Cl (stereo unspecified),170 to 172 °C
10,CCN1C(=O)N(CC2CC2)c2ccc(Cl)cc2C1c1ccccc1 (stereo unspecified),88 to 90 °C
11,Cc1sc(-c2nccs2)c2c1C(=O)CC(C)(C)C2,98 to 100 °C
12,COc1ccccc1N1CCN(S(=O)(=O)c2ccc(N)cc2)CC1,230 to 232 °C
13,O=C(O)[C@@H]1CCC(=O)N1C(=O)c1ccccc1,140 to 141 °C
14,CC(=O)Oc1ccc(C(=O)CN(CCNC(=O)Cc2ccccc2)Cc2ccccc2)cc1OC(C)=O,140 to 145 °C
15,O=C1c2ccccc2C(=O)N1CCCCOc1ccc(-c2ccccc2)cc1,110 to 111 °C
16,c1ccc(C(CCc2c[nH]cn2)c2ccccc2)cc1,115 to 117 °C
17,O=C(CCc1ccc2c(c1)CCCC2)N1C(=O)OC[C@@H]1Cc1ccccc1,92 to 93 °C
18,Cc1nc(O)c([N+](=O)[O-])c(Cl)n1,194 to 196 °C
19,COc1ccc2c3c1C(=O)CC3CCO2 (stereo unspecified),122 to 124 °C
20,Cc1ccc(S(=O)(=O)O[C@H](Cc2ccccc2)C(=O)NCCc2ocnc2C(=O)OCc2ccccc2)cc1,96 to 98 °C
21,OC(CCc1ccc(Br)cc1)Cn1ccnc1 (stereo unspecified),121 to 122 °C
22,CCCC1=C(C#N)C(c2cccc(C(F)(F)F)c2Cl)c2c[nH]nc2N1 (stereo unspecified),> 250 °C
23,CN(C)CCCN1N=C2C(=Cc3ccccc3)CS(=O)(=O)CC2C1c1ccccc1 (stereo unspecified),127 to 129 °C
24,Cn1nc(-c2c(F)cccc2Cl)nc1-c1ccc(Cl)nc1,118 to 120 °C
25,CCn1c(C)nc2cc(Sc3cccc4cnccc34)c([N+](=O)[O-])cc21,236 to 242 °C
26,Cn1cc(Oc2ccc(Cl)cc2Cl)c(=O)c(-c2cccc(C(F)(F)F)c2)c1,129 to 130 °C
27,CC(c1cc2ncnc(Cl)c2[nH]1)c1oc2ccccc2c(=O)c1-c1cccc(F)c1 (stereo unspecified),166 to 168 °C
28,CN1CCC(NC2=Nc3ccccc3Cn3nnnc32)CC1,112 to 114 °C

row,Structure (SMILES),melting point
1,Cc1nc2cc(NC(=O)Nc3ccc(C(F)(F)F)cc3)ccc2o1,240 to 243 °C
2,Cc1cc(C)c2cccc(OCc3c(Cl)ccc(S(=O)(=O)N4CCC[C@H]4C(=O)NCCCN(C)C(=O)OC(C)(C)C)c3Cl)c2n1,80 °C
3,COC(=O)[C@@H]1COC(c2ncn3c2CN(C)C(=O)c2sccc2-3)=N1,215 to 217 °C
4,CC1(C)C(=O)ON(Cc2ccc(Cl)cc2Cl)C1=O,68 to 69.5 °C
5,O=[N+]([O-])c1ccccc1NC1CCN(Cc2ccccc2)CC1,93.4 to 94.6 °C
6,O=C1CN=C(c2ccccc2F)c2ccccc2N1,181 to 182 °C
7,COC(=O)C1Cc2sc(N)c(C(=O)c3ccccc3Cl)c2C1 (stereo unspecified),120 to 125 °C
8,CS(=O)(=O)Nc1cc2c(cc1Oc1ccccc1)CCO2,133 °C
9,NC(=O)N(O)Cc1cccc(C(O)C#Cc2cccnc2)c1 (stereo unspecified),153 °C
10,COc1ccc2c(-c3ccc(Cl)cc3F)noc2c1Cl,193 to 194 °C
11,CC(C)C1OC(=Nc2ccccn2)c2c1nc1c(C(F)(F)F)cccc1c2O (stereo unspecified),178 to 180 °C
12,CCC(=O)N1CCc2ccccc2C(Oc2ccc(C(F)(F)F)cc2)C1 (stereo unspecified),109 to 110 °C
13,CC(=O)OC1CSC(Oc2cccc3c2nc(C)n3C)C(OC(C)=O)C1OC(C)=O (stereo unspecified),192 °C
14,CCCCN(Cc1ccc(Cl)cc1)c1cncnc1,67 to 68 °C
15,CC(C)OC(=O)C(C(=O)O)=C1SCS1,123 to 124 °C
16,CN(CCNCc1c(O)c(Br)cc2c1CCC2(C)C)CCNC(=O)c1nc(Cl)c(N)nc1N,134 to 136 °C
17,CCOC(=O)C(=NOCC(=O)OCC(Cl)(Cl)Cl)c1csc(N)n1,138 to 141 °C
18,Cc1ccc(C(=O)NCc2ccc3c(c2)CN(C2CCC(=O)NC2=O)C3=O)cc1Cl (stereo unspecified),229 to 231 °C
19,CC(C)CN1C(=O)[C@@H](CC(=O)O)N[C@H](c2ccccc2Cl)c2cc(Cl)ccc21,184 to 188 °C
20,O=C(CNC(=O)c1ccc([N+](=O)[O-])c(I(=O)=O)c1)OCc1ccccc1,196 to 198 °C
21,CCOCc1nc2c(N)nc3cccnc3c2n1CCCCN(OC)C(=O)NC(C)C,146 to 147 °C
22,CCOC(=O)c1ncn2c1CN(C)C(=S)c1cc(F)ccc1-2,157 to 159 °C
23,CC1=C(O)C(=O)c2ccccc2C1=O,173 to 174 °C
24,COc1ccc(-c2nn(CC(C)C)c3c(F)cccc23)c(OC)c1,92 to 93 °C
25,CCCCc1ccc(C(=O)NC(C)(C(N)=O)C(C)C)nc1 (stereo unspecified),83 to 86 °C
26,COc1ccc(C(=O)Nc2ccccc2)c(NS(=O)(=O)c2ccc([N+](=O)[O-])cc2)c1,224 to 227 °C
27,COc1cc(N)c(Cl)cc1C(=O)NCC1CCN(CCS(=O)(=O)Cc2ccccc2)CC1,220 to 223 °C

# Next, values leading:
row,melting point,Structure (SMILES)
1,198 to 199 °C,CCCCc1nc2c(N)nc3ccc(OCc4ccccc4)cc3c2n1C
2,171 to 172 °C,CCOC(=O)c1ncn2cc(Br)sc12
3,36 to 38 °C,Clc1ccc([C@H]2CC[C@H](CBr)CC2)cc1
4,141 to 142 °C,COc1ccc(NC(=O)c2nc3c(s2)C(=O)C=C(NCCCN(C)CCCNC2=CC(=O)c4sc(C)nc4C2=O)C3=O)cc1
5,86 to 89 °C,CC(CO)c1ccc2c(c1)Cc1ccccc1O2 (stereo unspecified)
6,147 °C,CC(C)(C)NCCCCOc1ccccc1C(=O)Nc1cccc2[nH]ccc12
7,93 °C,CC(=O)OCC1OC(ONc2ccc(C)cc2)C(OC(C)=O)C(OC(C)=O)C1OC(C)=O (stereo unspecified)
8,96 to 97 °C,CN1CCC(Cc2cc3cccnc3[nH]2)C1 (stereo unspecified)
9,40 to 41 °C,O=C(O)CCCCCCCCCCc1ccco1
10,200 to 203 °C,COc1ccc(C)cc1NC(=O)Nc1ccc(N2CCC(C(=O)Nc3ncccc3C)CC2)cc1
11,213 to 215 °C,Cc1ccc(-c2cc3ccccc3[nH]2)cc1
12,131 to 133 °C,O=C(Cc1ccccc1)Cc1ccc(Cl)c(Cl)c1
13,98 to 99 °C,CCOC(=O)C(=Cc1c(Cl)n(Cc2ccc(Cl)cc2)c2ccccc12)C(=O)OCC
14,150 to 151 °C,Nc1ccc(-n2ccn(-c3ccc(OC(F)(F)C(F)F)cc3)c2=O)cc1
15,196 to 197 °C,CC(C)(O)C(O)c1ccc(-c2ccc(/C(=C/C3CCOCC3)c3ccc(S(=O)(=O)C4CC4)cc3)[nH]2)nc1 (stereo unspecified)
16,158 to 159 °C,CC(=O)NC[C@H]1CN(c2ccc3c(c2)C[C@@H](C)N3C=O)C(=O)O1
17,103 to 104 °C,O=C(/C=C/C=C(c1cccc(F)c1)c1cccc(F)c1)NCCCCc1cccnc1
18,101 to 103 °C,CCN(CC)CCNC(=O)c1cc(Cl)c(N)cc1OCCCCSC
19,140 to 141 °C,CNC(=O)N1Cc2ccccc2CCC1=O
20,176 to 179 °C,CC(=O)Oc1ccc(CC(=O)Nc2cccc(/C=C/c3nc(C4CCC4)cs3)c2)c(C(=O)O)c1
21,220 to 223 °C,CNS(=O)(=O)c1cn(C)c2cc(Cl)ccc2c1=O
22,145 °C,COc1ccc(CCN(C)CCOc2ccc(NC(=O)c3cccc4c(=O)c5cc(F)ccc5sc34)cc2)cc1OC
23,105 to 106 °C,Cc1ccnc(C(O)c2cc(F)ccc2F)c1 (stereo unspecified)

row,melting point,Structure (SMILES)
1,101 to 103 °C,CCCc1c(OCCCOc2cc(NC(=O)C(=O)O)c(C)cc2Br)ccc(C(C)=O)c1O
2,162 to 166 °C,CC1(C)[C@@H](CS(=O)(=O)c2ccc(S(C)(=O)=O)cc2)CC[C@@]1(C)NCC(=O)N1CCC[C@H]1C#N
3,42 to 43.5 °C,CN(C)C=C(C=O)c1cccc(F)c1
4,135 to 137 °C,CC1(C)C(=O)Oc2ccc3ccc(C=O)cc3c21
5,195 to 196 °C,CC(=O)Oc1ccc(C(=O)Nc2ccc(Cl)c(NC(=O)c3ccc(C#N)cc3)c2)cc1
6,130 to 134 °C,O=C(CP(=O)(O)O)NCc1ccccc1
7,78 to 79 °C,c1ccc(CN2CCc3[nH]c4c(-c5ccccc5)cccc4c3CC2)cc1
8,83 to 84 °C,COC(=O)COc1cccc2c(CNS(=O)(=O)CCOc3ccccc3)coc12
9,178 to 180 °C,O=S(=O)(/C=C/c1ccc(Cl)cc1)CS(=O)(=O)/C=C/c1ccc(Cl)cc1
10,212 °C,COC(=O)c1ccc(C(=O)Nc2cc3c4c(c2)CCCC4(C)CCC3)s1
11,197 to 198 °C,CS(=O)(=O)c1ccc(-c2cnn(CC(F)(F)F)c(=O)c2-c2ccc(Cl)c(Cl)c2)cc1
12,122 to 125 °C,COc1nc2cc(F)cc(CBr)c2nc1OC
13,248 to 252 °C,C[C@]1(CN2CCN(c3ccc(C(=O)O)cc3)CC2)Cn2cc([N+](=O)[O-])nc2O1
14,144 to 146 °C,CC(C)(C)OC(=O)NCc1nnc(S)s1
15,150 °C,COCCOc1cc(C(O)C#Cc2ccc(C(=O)O)cc2)cc2c1C(C)(C)CCC2(C)C (stereo unspecified)
16,105 to 106 °C,CC(C)(C)NS(=O)(=O)c1c(C(F)F)nsc1OCC(F)(F)F
17,136 °C,CCOC(=O)C(C)Oc1ccc(Nc2cnc3cc(Cl)ccc3n2)cc1 (stereo unspecified)
18,126 to 128 °C,Nc1nc2ccc(Oc3ccc(F)cc3)cc2s1
19,223 °C,CS(=O)(=O)c1c(N2CCN(C(=O)c3cccs3)CC2)c2cccnc2n(Cc2ccccc2)c1=O
20,184 to 186 °C,O=C(COc1ccccc1)NC1C(=O)N2C1SCN(O)C2C(=O)OCc1ccccc1 (stereo unspecified)
21,173 to 174 °C,CN1C(=O)c2ccccc2N=C(NCCc2ccccc2)C1c1ccccc1 (stereo unspecified)
22,229 to 230 °C,Cc1c(C)c2c(c(C)c1NC(=O)CC(C)(C)C)C(N1CCCCC1)C(C)(C)O2 (stereo unspecified)
23,192 to 193 °C,Nc1cccc(C2=NNC(=O)C3CC23)c1 (stereo unspecified)
